The source made the active and inactive calls. The rule behind the calls is not given here.
Legend:
HL-60(TB) = assay: Growth inhibition of human HL-60(TB) cells incubated for 48 hrs by sulforhodamine B assay; assay type: functional; conditions: HL-60, 48 h
K562 = assay: Growth inhibition of human K562 cells incubated for 48 hrs by sulforhodamine B assay; assay type: functional; conditions: K562, 48 h
MOLT-4 [1] = assay: Growth inhibition of human MOLT4 cells incubated for 48 hrs by sulforhodamine B assay; assay type: functional; conditions: MOLT-4, 48 h
RPMI-8226 = assay: Growth inhibition of human RPMI8226 cells incubated for 48 hrs by sulforhodamine B assay; assay type: functional; conditions: RPMI-8226, 48 h
SR = assay: Growth inhibition of human SR cells incubated for 48 hrs by sulforhodamine B assay; assay type: functional
A549 = assay: Growth inhibition of human A549/ATCC cells incubated for 48 hrs by sulforhodamine B assay; assay type: functional; conditions: A549, 48 h
HOP-62 = assay: Growth inhibition of human HOP62 cells incubated for 48 hrs by sulforhodamine B assay; assay type: functional; conditions: HOP-62, 48 h
NCI-H226 = assay: Growth inhibition of human NCI-H226 cells incubated for 48 hrs by sulforhodamine B assay; assay type: functional; conditions: NCI-H226, 48 h
NCI-H23 = assay: Growth inhibition of human NCI-H23 cells incubated for 48 hrs by sulforhodamine B assay; assay type: functional; conditions: NCI-H23, 48 h
NCI-H522 = assay: Growth inhibition of human NCI-H522 cells incubated for 48 hrs by sulforhodamine B assay; assay type: functional; conditions: NCI-H522, 48 h
COLO 205 = assay: Growth inhibition of human COLO205 cells incubated for 48 hrs by sulforhodamine B assay; assay type: functional; conditions: COLO 205, 48 h
HCT-15 = assay: Growth inhibition of human HCT15 cells incubated for 48 hrs by sulforhodamine B assay; assay type: functional; conditions: HCT-15, 48 h
HT-29 = assay: Growth inhibition of human HT-29 cells incubated for 48 hrs by sulforhodamine B assay; assay type: functional; conditions: HT-29, 48 h
SW-620 = assay: Growth inhibition of human SW620 cells incubated for 48 hrs by sulforhodamine B assay; assay type: functional; conditions: SW-620, 48 h
SF-295 = assay: Growth inhibition of human SF295 cells incubated for 48 hrs by sulforhodamine B assay; assay type: functional; conditions: SF-295, 48 h
MDA-MB-435 = assay: Growth inhibition of human MDA-MB-435 cells incubated for 48 hrs by sulforhodamine B assay; assay type: functional; conditions: MDA-MB-435, 48 h
CAKI-1 = assay: Growth inhibition of human Caki1 cells incubated for 48 hrs by sulforhodamine B assay; assay type: functional; conditions: CAKI-1, 48 h
TK-10 = assay: Growth inhibition of human TK10 cells incubated for 48 hrs by sulforhodamine B assay; assay type: functional; conditions: TK-10, 48 h
DU-145 = assay: Growth inhibition of human DU145 cells incubated for 48 hrs by sulforhodamine B assay; assay type: functional; conditions: DU-145, 48 h
MDA-MB-231 = assay: Growth inhibition of human MDA-MB-231/ATCC cells incubated for 48 hrs by sulforhodamine B assay; assay type: functional; conditions: MDA-MB-231, 48 h
Hs-578T = assay: Growth inhibition of human Hs578T cells incubated for 48 hrs by sulforhodamine B assay; assay type: functional
MOLT-4 [2] = assay: Growth inhibition of human MOLT4 cells at 10^-5 M incubated for 48 hrs by sulforhodamine B assay relative to control; assay type: functional; conditions: MOLT-4, 48 h, read-out: GI
NCI-H460 = assay: Growth inhibition of human NCI-H460 cells at 10^-5 M cells incubated for 48 hrs by sulforhodamine B assay relative to control; assay type: functional
UO-31 = assay: Growth inhibition of human UO31 cells at 10^-5 M incubated for 48 hrs by sulforhodamine B assay relative to control; assay type: functional; conditions: UO-31, 48 h, read-out: GI
MCF7 = assay: Growth inhibition of human MCF7 cells at 10^-5 M incubated for 48 hrs by sulforhodamine B assay relative to control; assay type: functional; conditions: MCF7, 48 h, read-out: GI
MDA-MB-468 = assay: Growth inhibition of human MDA-MB-468 cells at 10^-5 M incubated for 48 hrs by sulforhodamine B assay relative to control; assay type: functional; conditions: MDA-MB-468, 48 h, read-out: GI
[3] = tested on: Panel NCI-60 (60 carcinoma cell lines); assay: Growth inhibition of human NCI60 cells at incubated for 48 hrs by sulforhodamine B assay; assay type: functional
C6 [4] = assay: Cell cycle arrest in rat C6 cells assessed as increase in cell population at sub G0 phase measured after 24 hrs by propidium iodide staining based flow cytometry analysis; assay type: functional
C6 [5] = assay: Cell cycle arrest in rat C6 cells assessed as decrease in cell population at G2/M phase measured after 24 hrs by propidium iodide staining based flow cytometry analysis; assay type: functional
[6] = molecular target: T1, Dihydrofolate reductase (Homo sapiens) (UniProt P00374); assay: Inhibition of human dihydrofolate reductase assessed as association constant by UV-Vis spectra based Benesi Hilebrand equation analysis
T1 sequence (whole entry): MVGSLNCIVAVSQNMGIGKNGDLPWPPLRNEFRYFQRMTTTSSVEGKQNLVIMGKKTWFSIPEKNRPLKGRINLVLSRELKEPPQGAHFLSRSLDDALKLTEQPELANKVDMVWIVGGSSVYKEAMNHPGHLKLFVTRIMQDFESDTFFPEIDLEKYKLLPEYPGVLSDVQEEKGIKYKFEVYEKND

[7] = read-out: pLC50 (the source's name) (converted)
[8] = read-out: LC50 (the source's name)

SMILES: O=C(OC[C@@H]1CO1)c1cccc2c(=O)c3ccccc3[nH]c12
- GI50 (HL-60(TB)): 1.29 µM
- CC50 (HL-60(TB); [7]): 8.51 µM
- TGI (HL-60(TB); read-out: pTGI (converted)): 3.31 µM
- GI50 (K562): 2.19 µM
- CC50 (K562; [7]): > 100 µM
- TGI (K562; read-out: pTGI): > 100 µM
- GI50 (MOLT-4 [1]; read-out: GI50): 0.28 µM
- CC50 (MOLT-4 [1]; [8]): > 100 µM
- GI50 (MOLT-4 [1]; read-out: pGI50 (converted)): 0.288 µM
- CC50 (MOLT-4 [1]; [7]): > 100 µM
- TGI (MOLT-4 [1]; read-out: pTGI (converted)): 2.34 µM
- GI50 (RPMI-8226): 1.95 µM
- CC50 (RPMI-8226; [7]): > 100 µM
- TGI (RPMI-8226; read-out: pTGI (converted)): 6.61 µM
- GI50 (SR; read-out: GI50): 0.3 µM
- CC50 (SR; [8]): > 100 µM
- GI50 (SR; read-out: pGI50 (converted)): 0.302 µM
- CC50 (SR; [7]): > 100 µM
- TGI (SR; read-out: pTGI (converted)): 4.37 µM
- GI50 (A549): 2.45 µM
- CC50 (A549; [7]): > 100 µM
- TGI (A549; read-out: pTGI (converted)): 7.24 µM
- GI50 (HOP-62): 2.14 µM
- CC50 (HOP-62; [7]): > 100 µM
- TGI (HOP-62; read-out: pTGI (converted)): 5.89 µM
- GI50 (NCI-H226): 1.58 µM
- TGI (NCI-H226; read-out: pTGI (converted)): 3.47 µM
- GI50 (NCI-H23): 1.41 µM
- CC50 (NCI-H23; [7]): > 100 µM
- TGI (NCI-H23; read-out: pTGI (converted)): 4.47 µM
- GI50 (NCI-H522): 1.62 µM
- CC50 (NCI-H522; [7]): 8.71 µM
- TGI (NCI-H522; read-out: pTGI (converted)): 3.72 µM
- GI50 (COLO 205): 1.48 µM
- CC50 (COLO 205; [7]): 33.9 µM
- TGI (COLO 205; read-out: pTGI (converted)): 4.17 µM
- GI50 (HCT-15): 1.66 µM
- CC50 (HCT-15; [7]): > 100 µM
- TGI (HCT-15; read-out: pTGI (converted)): 5.25 µM
- GI50 (HT-29): 2.24 µM
- CC50 (HT-29; [7]): > 100 µM
- TGI (HT-29; read-out: pTGI (converted)): 7.94 µM
- GI50 (SW-620; read-out: GI50): 0.83 µM
- CC50 (SW-620; [8]): > 100 µM
- GI50 (SW-620; read-out: pGI50 (converted)): 0.832 µM
- CC50 (SW-620; [7]): > 100 µM
- TGI (SW-620; read-out: pTGI (converted)): 12.9 µM
- GI50 (SF-295): 2.88 µM
- CC50 (SF-295; [7]): > 100 µM
- TGI (SF-295; read-out: pTGI (converted)): 9.55 µM
- GI50 (MDA-MB-435): 1.62 µM
- CC50 (MDA-MB-435; [7]): 6.61 µM
- TGI (MDA-MB-435; read-out: pTGI (converted)): 3.24 µM
- GI50 (CAKI-1): 1.82 µM
- CC50 (CAKI-1; [7]): > 100 µM
- TGI (CAKI-1; read-out: pTGI (converted)): 8.32 µM
- GI50 (TK-10): 2.34 µM
- CC50 (TK-10; [7]): > 100 µM
- TGI (TK-10; read-out: pTGI (converted)): 6.76 µM
- GI50 (DU-145): 1.35 µM
- CC50 (DU-145; [7]): > 100 µM
- TGI (DU-145; read-out: pTGI (converted)): 5.89 µM
- GI50 (MDA-MB-231): 2.09 µM
- CC50 (MDA-MB-231; [7]): > 100 µM
- TGI (MDA-MB-231; read-out: pTGI (converted)): 5.25 µM
- GI50 (Hs-578T): 2.04 µM
- CC50 (Hs-578T; [7]): > 100 µM
- TGI (Hs-578T; read-out: pTGI (converted)): 5.89 µM
- inhibition of growth at 10 µM (MOLT-4 [2]): 99%
- growth inhibition (GI) (NCI-H460): 100%
- inhibition of growth at 10 µM (UO-31): 100%
- inhibition of growth at 10 µM (MCF7): 100%
- inhibition of growth at 10 µM (MDA-MB-468): 100%
- GI50 [3]: 0.3 µM
- TGI [3]: 1.2 µM
- CC50 [3, 8]: 38 µM
- Activity (C6 [4]): Active
- inhibition (C6 [5]): Active
- Ka [6]: 1.6 ×10⁴ /M
